Laboratory results reported in patent US9637492B2, “Benzothiazole kinase inhibitors and methods of use” (Intellikine LLC, priority 2008, dated 2017).

How the values were obtained:
mTORC = molecular target: T1, mTORC (Homo sapiens, UniProt P42345); experiment: mTOR inhibition assay (Table 4, mTORC); type: biochemical; settings: binned
T1 construct: purchased Invitrogen
Procedure: The compounds described herein can be tested against recombinant mTOR (Invitrogen) in an assay containing 50 mM HEPES, pH 7.5, 1 mM EGTA, 10 mM MgCl2, 2.5 mM, 0.01% Tween, 10 μM ATP (2.5 μCi of […]), and 3 μg/mL BSA. Rat recombinant PHAS-1/4EBP1 (Calbiochem; 2 mg/mL) is used as a substrate. Reactions are terminated by spotting onto nitrocellulose, which is washed with 1M NaCl/1% phosphoric acid (approximately 6 times, 5-10 minutes each). Sheets are dried and the transferred radioactivity quantitated by phosphorimaging.
Other kits or systems for assaying mTOR activity are commercially avaiable. For instance, one can use Invitrogen's LanthaScreen™ Kinase assay to test the inhibitors of mTOR disclosed herein. This assay is a time resolved FRET platform that measures the phosphorylation of GFP labeled 4EBP1 by mTOR kinase. The kinase reaction is performed in a white 384 well microtitre plate. The total reaction volume is 20 ul per well and the reaction buffer composition is 50 mM HEPES pH7.5, 0.01% Polysorbate 20, 1 mM EGTA, 10 mM MnC12, and 2 mM DTT. In the first step, each well receives 2 ul of test compound in 20% dimethylsulphoxide resulting in a 2% DMSO final concentration. Next, 8 ul of mTOR diluted in reaction buffer is added per well for a 60 ng/ml final concentration. To start the reaction, 10 ul of an ATP/GFP-4EBP1 mixture (diluted in reaction buffer) is added per well for a final concentration of 10 uM ATP and 0.5 uM GFP-4EBP1. The plate is sealed and incubated for 1 hour at room temperature. The reaction is stopped by adding 10 ul per well of a Tb-anti-pT46 4EBP1 antibody/EDTA mixture (diluted in TR-FRET buffer) for a final concentration of 1.3 nM antibody and 6.7 mM EDTA. The plate is sealed, incubated for 1 hour at room temperature, and then read on a plate reader set up for LanthaScreen™ TR-FRET. Data is analyzed and IC50s are generated using GraphPad Prism 5.

PI3K alpha = molecular target: T2, PI3K alpha (Homo sapiens, UniProt P42336); experiment: PI3K alpha inhibition assay; type: biochemical; settings: binned
T2 construct: purchased Upstate
T2 sequence (P42336 whole entry): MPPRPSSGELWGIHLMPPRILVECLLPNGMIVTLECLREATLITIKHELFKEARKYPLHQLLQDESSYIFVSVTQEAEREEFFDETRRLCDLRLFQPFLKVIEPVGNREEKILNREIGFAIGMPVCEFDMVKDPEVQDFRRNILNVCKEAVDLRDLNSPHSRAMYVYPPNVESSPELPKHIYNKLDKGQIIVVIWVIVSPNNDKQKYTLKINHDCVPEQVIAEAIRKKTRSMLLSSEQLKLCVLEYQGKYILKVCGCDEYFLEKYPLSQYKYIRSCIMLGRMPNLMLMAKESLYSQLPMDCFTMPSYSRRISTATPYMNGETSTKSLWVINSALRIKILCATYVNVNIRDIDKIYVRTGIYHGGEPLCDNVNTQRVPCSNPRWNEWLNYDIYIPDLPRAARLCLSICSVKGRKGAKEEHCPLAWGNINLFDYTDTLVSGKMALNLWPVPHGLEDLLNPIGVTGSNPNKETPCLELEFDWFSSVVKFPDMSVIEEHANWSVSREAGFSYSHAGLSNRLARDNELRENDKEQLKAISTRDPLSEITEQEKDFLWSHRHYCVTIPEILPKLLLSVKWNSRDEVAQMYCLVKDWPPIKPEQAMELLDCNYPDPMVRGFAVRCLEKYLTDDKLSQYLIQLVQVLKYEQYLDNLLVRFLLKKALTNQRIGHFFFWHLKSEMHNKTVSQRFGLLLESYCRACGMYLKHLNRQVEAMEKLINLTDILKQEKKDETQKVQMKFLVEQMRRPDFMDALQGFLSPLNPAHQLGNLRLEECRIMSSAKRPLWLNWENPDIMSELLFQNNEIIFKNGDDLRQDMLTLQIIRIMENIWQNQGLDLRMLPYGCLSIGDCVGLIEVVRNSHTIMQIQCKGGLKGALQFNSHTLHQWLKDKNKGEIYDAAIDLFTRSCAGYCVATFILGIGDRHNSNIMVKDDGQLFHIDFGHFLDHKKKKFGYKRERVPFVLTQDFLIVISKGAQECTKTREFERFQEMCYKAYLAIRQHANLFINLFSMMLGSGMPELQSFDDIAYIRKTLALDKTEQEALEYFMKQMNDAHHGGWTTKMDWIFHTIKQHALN
T2 sequence (P27986 whole entry partner): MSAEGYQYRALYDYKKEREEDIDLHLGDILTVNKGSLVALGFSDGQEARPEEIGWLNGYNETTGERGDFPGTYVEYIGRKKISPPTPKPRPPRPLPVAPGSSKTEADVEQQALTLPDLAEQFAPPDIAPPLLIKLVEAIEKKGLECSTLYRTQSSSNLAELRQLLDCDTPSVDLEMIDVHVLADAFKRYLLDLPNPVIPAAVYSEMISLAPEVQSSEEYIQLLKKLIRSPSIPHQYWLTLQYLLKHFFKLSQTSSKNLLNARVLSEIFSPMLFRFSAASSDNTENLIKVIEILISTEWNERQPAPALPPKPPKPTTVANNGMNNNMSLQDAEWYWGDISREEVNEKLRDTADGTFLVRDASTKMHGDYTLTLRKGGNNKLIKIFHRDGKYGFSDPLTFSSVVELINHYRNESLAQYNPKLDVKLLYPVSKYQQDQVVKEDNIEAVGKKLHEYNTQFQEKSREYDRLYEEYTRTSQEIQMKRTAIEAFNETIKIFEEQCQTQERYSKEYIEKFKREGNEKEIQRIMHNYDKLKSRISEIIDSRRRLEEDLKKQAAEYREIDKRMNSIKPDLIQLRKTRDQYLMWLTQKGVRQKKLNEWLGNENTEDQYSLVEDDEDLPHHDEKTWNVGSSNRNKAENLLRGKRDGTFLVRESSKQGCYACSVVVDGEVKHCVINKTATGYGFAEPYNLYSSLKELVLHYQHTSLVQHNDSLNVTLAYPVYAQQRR
Procedure: (§1) For TLC analysis, reactions are then terminated by the addition of 105 μl 1N HCl followed by 160 μl CHC13:MeOH (1:1). The biphasic mixture is vortexed, briefly centrifuged, and the organic phase is transferred to a new tube using a gel loading pipette tip precoated with CHCl3. […] The TLC plates are then dried, exposed to a phosphorimager screen (Storm, Amersham), and quantitated.
(§2) Anr exemplary system is PI 3-Kinase (human) HTRF™ Assay from Upstate. […] Briefly, the assay is a time resolved FRET assay that indirectly measures PIP3 product formed by the activity of a PI3-K. The kinase reaction is performed in a microtitre plate (e.g., a 384 well microtitre plate). The total reaction volume is approximately 20 ul per well. In the first step, each well receives 2 ul of test compound in 20% dimethylsulphoxide resulting in a 2% DMSO final concentration. Next, approximately 14.5 ul of a kinase/PIP2 mixture (diluted in 1× reaction buffer) is added per well for a final concentration of 0.25-0.3 ug/ml kinase and 10 uM PIP2. The plate is sealed and incubated for 15 minutes at room temperature. To start the reaction, 3.5 ul of ATP (diluted in 1× reaction buffer) is added per well for a final concentration of 10 uM ATP. The plate is sealed and incubated for 1 hour at room temperature. The reaction is stopped by adding 5 ul of Stop Solution per well and then 5 ul of Detection Mix is added per well. The plate is sealed, incubated for 1 hour at room temperature, and then read on an appropriate plate reader. Data is analyzed and IC50s are generated using GraphPad Prism 5.

PI3K beta = molecular target: T3, PI3K beta (Homo sapiens, UniProt P42338); experiment: PI3K beta inhibition assay; type: biochemical; settings: binned
T3 construct: purchased Upstate
T3 sequence (P42338 whole entry): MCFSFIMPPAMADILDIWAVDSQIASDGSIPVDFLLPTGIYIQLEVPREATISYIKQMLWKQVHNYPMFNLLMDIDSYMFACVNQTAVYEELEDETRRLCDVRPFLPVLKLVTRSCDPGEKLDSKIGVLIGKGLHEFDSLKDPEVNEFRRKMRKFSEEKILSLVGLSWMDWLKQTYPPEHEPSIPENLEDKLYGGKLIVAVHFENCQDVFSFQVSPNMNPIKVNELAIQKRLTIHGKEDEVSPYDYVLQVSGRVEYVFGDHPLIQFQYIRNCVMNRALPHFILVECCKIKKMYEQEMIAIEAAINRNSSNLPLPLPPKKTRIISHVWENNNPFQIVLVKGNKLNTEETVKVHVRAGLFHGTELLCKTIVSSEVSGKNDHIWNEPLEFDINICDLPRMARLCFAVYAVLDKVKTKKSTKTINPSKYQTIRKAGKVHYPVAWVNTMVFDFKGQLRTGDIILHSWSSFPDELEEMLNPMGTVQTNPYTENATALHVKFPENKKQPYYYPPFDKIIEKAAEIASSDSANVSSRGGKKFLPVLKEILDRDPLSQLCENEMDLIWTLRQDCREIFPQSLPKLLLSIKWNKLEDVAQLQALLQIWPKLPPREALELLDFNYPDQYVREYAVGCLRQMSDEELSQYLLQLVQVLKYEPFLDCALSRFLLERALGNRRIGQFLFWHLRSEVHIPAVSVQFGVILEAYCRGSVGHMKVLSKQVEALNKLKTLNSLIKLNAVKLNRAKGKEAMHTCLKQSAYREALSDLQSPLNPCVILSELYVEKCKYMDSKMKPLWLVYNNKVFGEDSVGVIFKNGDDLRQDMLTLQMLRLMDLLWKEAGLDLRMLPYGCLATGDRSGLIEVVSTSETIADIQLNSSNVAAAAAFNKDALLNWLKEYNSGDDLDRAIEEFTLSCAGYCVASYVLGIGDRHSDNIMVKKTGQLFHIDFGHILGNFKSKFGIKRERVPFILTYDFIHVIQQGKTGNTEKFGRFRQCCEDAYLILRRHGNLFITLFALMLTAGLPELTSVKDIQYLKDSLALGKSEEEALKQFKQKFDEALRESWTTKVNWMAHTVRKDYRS
T3 sequence (P27986 2-724 partner): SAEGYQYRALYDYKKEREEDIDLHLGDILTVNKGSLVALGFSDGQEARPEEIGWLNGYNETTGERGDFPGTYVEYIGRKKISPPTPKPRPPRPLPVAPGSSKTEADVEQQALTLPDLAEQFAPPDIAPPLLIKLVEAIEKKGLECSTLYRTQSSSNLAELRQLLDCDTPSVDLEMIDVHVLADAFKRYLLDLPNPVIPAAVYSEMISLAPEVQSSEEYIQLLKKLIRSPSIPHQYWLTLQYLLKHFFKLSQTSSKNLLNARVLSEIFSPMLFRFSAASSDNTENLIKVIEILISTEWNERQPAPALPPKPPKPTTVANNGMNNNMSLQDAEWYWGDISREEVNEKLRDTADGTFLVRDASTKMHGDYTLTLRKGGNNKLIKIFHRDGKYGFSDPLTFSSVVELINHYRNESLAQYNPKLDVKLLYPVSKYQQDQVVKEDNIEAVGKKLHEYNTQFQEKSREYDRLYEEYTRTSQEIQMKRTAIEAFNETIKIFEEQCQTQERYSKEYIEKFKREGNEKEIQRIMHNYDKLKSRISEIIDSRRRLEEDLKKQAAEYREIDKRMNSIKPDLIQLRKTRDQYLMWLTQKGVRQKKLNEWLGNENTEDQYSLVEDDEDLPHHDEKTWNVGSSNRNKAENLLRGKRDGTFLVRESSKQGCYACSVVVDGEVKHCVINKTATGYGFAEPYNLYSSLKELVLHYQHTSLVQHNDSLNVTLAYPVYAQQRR
Procedure: as §1, §2

PI3K delta = molecular target: T4, PI3K delta (Homo sapiens, UniProt O00329); experiment: PI3K delta inhibition assay; type: biochemical; settings: binned
T4 construct: purchased Upstate
T4 sequence (O00329 whole entry): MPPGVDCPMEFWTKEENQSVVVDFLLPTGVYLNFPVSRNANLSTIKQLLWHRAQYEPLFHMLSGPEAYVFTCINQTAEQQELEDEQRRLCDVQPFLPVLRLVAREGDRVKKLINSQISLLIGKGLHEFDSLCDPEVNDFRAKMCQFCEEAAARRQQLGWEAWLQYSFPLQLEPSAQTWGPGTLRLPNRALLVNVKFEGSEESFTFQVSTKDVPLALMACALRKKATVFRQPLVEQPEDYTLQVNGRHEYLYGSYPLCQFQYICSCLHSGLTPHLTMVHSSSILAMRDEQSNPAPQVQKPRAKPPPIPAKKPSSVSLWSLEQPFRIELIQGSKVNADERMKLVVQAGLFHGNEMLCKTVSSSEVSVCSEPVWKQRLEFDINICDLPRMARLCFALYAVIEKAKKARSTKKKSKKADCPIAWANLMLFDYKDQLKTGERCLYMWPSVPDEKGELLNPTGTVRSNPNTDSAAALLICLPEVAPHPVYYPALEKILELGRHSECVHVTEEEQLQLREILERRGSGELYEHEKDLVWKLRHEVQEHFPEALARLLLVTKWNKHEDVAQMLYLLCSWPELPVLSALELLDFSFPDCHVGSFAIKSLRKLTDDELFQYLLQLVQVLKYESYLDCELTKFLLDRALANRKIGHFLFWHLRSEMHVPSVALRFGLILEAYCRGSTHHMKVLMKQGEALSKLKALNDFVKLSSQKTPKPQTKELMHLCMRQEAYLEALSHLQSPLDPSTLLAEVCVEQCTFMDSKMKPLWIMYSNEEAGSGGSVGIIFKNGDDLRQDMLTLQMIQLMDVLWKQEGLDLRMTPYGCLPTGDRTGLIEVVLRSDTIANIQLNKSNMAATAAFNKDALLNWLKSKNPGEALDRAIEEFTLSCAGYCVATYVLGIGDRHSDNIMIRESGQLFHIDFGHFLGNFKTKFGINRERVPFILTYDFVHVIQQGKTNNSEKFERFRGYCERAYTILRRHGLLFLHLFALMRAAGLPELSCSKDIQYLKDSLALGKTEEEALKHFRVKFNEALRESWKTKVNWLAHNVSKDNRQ
T4 sequence (P27986 whole entry partner): as the sequence (P27986 whole entry partner) above
Procedure: as §1, §2

PI3K gamma = molecular target: T5, PI3K gamma (Homo sapiens, UniProt P48736); experiment: PI3K gamma inhibition assay; type: biochemical; settings: binned
T5 construct: purchased Sigma
Procedure: For TLC analysis, reactions are then terminated by the addition of 105 μl 1N HCl followed by 160 μl CHC13:MeOH (1:1). The biphasic mixture is vortexed, briefly centrifuged, and the organic phase is transferred to a new tube using a gel loading pipette tip precoated with CHCl3. This extract is spotted on TLC plates and developed for 3-4 hours in a 65:35 solution of n-propanol:1M acetic acid. The TLC plates are then dried, exposed to a phosphorimager screen (Storm, Amersham), and quantitated. For each compound, kinase activity is measured at 10-12 inhibitor concentrations representing two-fold dilutions from the highest concentration tested (typically, 200 μM).
Other commercial kits or systems for assaying PI3-K activities are available. The commercially available kits or systems can be used to screen for inhibitors and/or agonists of PI3-Ks including but not limited to PI 3-Kinase α, β, δ, and γ. Anr exemplary system is PI 3-Kinase (human) HTRF™ Assay from Upstate. […] Briefly, the assay is a time resolved FRET assay that indirectly measures PIP3 product formed by the activity of a PI3-K. The kinase reaction is performed in a microtitre plate (e.g., a 384 well microtitre plate). […] The plate is sealed, incubated for 1 hour at room temperature, and then read on an appropriate plate reader. Data is analyzed and IC50s are generated using GraphPad Prism 5.

PC3 = experiment: Tumor cell line proliferation assay (Alamar Blue); type: cell-based; settings: Homo sapiens, PC-3; binned
Procedure: The ability of one or more subject compounds to inhibit tumor cell line proliferation is determined according to standard procedures known in the art. For instance, an in vitro cellular proliferation assay can be performed to measure the metabolic activity of live cells. The assay is performed in a 96 well microtiter plate using Alamar Blue reduction. Human tumor cell lines are obtained from ATCC (e.g., MCF7, U-87 MG, MDA-MB-468, PC-3), grown to confluency in T75 flasks, trypsinized with 0.25% trypsin, washed one time with Tumor Cell Media (DMEM+10% FBS), and plated in 90 ul at 5,000 cells/well in Tumor Cell Media. A compound disclosed herein is diluted in Tumor Cell Media and added in a 10 ul volume. Plates are incubated for 72 hours at 37 C and 5% CO2. A volume of 10 uL of Alamar Blue reagent is added to each well and plates are incubated for 3 hours at 37 C and 5% CO2. Alamar Blue fluoresce is read at 560Ex/590Em, and IC50 values are calculated using GraphPad Prism 5.

[1] = tested on: p190 transduced leukemic cells; settings: about 70 mg/kg twice daily; cited from earlier work
[2] = PBS pH 7.4, 37° C., over the course of 24 hours; cited from earlier work
[3] = control or reference compounds, 5 μM; cited from earlier work
B6.Sle1z.Sle3z model = settings: cited from earlier work

Compound	IC50 (mTORC)	IC50 (PI3K alpha)	further results
CC(C)n1nc(-c2ccc3nc(NC4CC4)sc3c2)c2c(N)ncnc21 [Compound 15]	≤ 500 nM	> 1000 nM	IC50 (PI3K beta): > 1000 nM
CC(C)n1nc(-c2ccc3ncsc3c2)c2c(N)ncnc21 [Compound 2]	> 1000 nM		
CC(C)n1nc(-c2ccc3nc(N)sc3c2)c2c(N)ncnc21 [Compound 3]	≤ 50 nM	≤ 500 nM	IC50 (PI3K delta): ≤ 100 nM; IC50 (PI3K beta): > 1000 nM
CNC(=O)Cn1nc(-c2ccc3nc(NC(C)=O)sc3c2)c2c(N)ncnc21 [Compound 18]	> 1000 nM		IC50 (PI3K gamma): > 1000 nM; IC50 (PI3K beta): > 1000 nM
CC(C)n1nc(-c2ccc3nc(N4CCOCC4)sc3c2)c2c(N)ncnc21 [Compound 14]	> 1000 nM	> 1000 nM	
CC(C)n1nc(-c2ccc3nc(NCCO)sc3c2)c2c(N)ncnc21 [Compound 16]	≤ 1000 nM	≤ 1000 nM	
CC(C)C(=O)Nc1nc2ccc(-c3nn(C(C)C)c4ncnc(N)c34)cc2s1 [Compound 7]	> 1000 nM		
CNC(=O)Nc1nc2ccc(-c3cn(C4CCOCC4)c4ncnc(N)c34)cc2s1 [Compound 21]	≤ 50 nM		IC50 (PC3): ≤ 1000 nM
CNC(=O)Nc1nc2ccc(-c3nn(C(C)C)c4ncnc(N)c34)cc2s1 [Compound 20]	≤ 50 nM		
Cc1ccc(NC(=O)c2ccc(CN3CCN(C)CC3)cc2)cc1Nc1nccc(-c2cccnc2)n1 [imatinib]			leukemogenesis [1]: delay but not cure leukemogenesis
CCNc1nc2ccc(-c3nn(C(C)C)c4ncnc(N)c34)cc2s1 [Compound 12]	≤ 500 nM	≤ 500 nM	IC50 (PI3K gamma): ≤ 500 nM; IC50 (PI3K delta): ≤ 1000 nM
CCC(=O)Nc1nc2ccc(-c3nn(C(C)C)c4ncnc(N)c34)cc2s1 [Compound 9]	≤ 500 nM	≤ 500 nM	
CC(=O)Nc1nc2ccc(-c3nn(C4CCC4)c4ncnc(N)c34)cc2s1 [Compound 10]	≤ 100 nM	≤ 100 nM	IC50 (PI3K delta): ≤ 100 nM
CNC(=O)Nc1nc2ccc(-c3cn(C4CCN(C(C)=O)CC4)c4ncnc(N)c34)cc2s1 [Compound 23]	≤ 50 nM		IC50 (PC3): > 1000 nM; IC50 (PI3K beta): ≤ 100 nM
CC(=O)Nc1nc2ccc(-c3nn(C(C)C)c4ncnc(N)c34)cc2s1 [Compound 1]	≤ 50 nM	≤ 500 nM	IC50 (PI3K beta): > 1000 nM
O=C(O)CCCc1ccc(N(CCCl)CCCl)cc1 [chlorambucil]			chemical stability [2]: largely hydrolyzed
CNC(=O)Nc1nc2ccc(-c3cn(C(C)C)c4ncnc(N)c34)cc2s1 [Compound 22]	≤ 50 nM		IC50 (PC3): ≤ 100 nM
CC(=O)Nc1nc2ccc(-c3nn(C)c4ncnc(N)c34)cc2s1 [Compound 6]	> 1000 nM	≤ 1000 nM	
CC(=O)Nc1nc2ccc(-c3nn(C4CCOCC4)c4ncnc(N)c34)cc2s1 [Compound 19]	≤ 50 nM	≤ 500 nM	
CCn1nc(-c2ccc3nc(NC(C)=O)sc3c2)c2c(N)ncnc21 [Compound 5]	≤ 50 nM	≤ 100 nM	IC50 (PI3K beta): > 1000 nM
CC(=O)Nc1nc2cc(-c3nn(C(C)C)c4ncnc(N)c34)ccc2s1 [Compound 17]	≤ 1000 nM		
CC(=O)Nc1nc2ccc(-c3nn(C4CCCC4)c4ncnc(N)c34)cc2s1 [Compound 4]	≤ 50 nM		IC50 (PI3K beta): > 1000 nM
CC(C)n1nc(-c2ccc3nc(NC(=O)C4CC4)sc3c2)c2c(N)ncnc21 [Compound 8]	≤ 500 nM	≤ 1000 nM	
CC(C)n1nc(-c2ccc3nc(NCCN4CCOCC4)sc3c2)c2c(N)ncnc21 [Compound 13]	> 1000 nM	> 1000 nM	
CC(C)[N+](C)(CCOC(=O)C1c2ccccc2Oc2ccccc21)C(C)C [propantheline]			plasma stability [3]: intermediate plasma stability
CCCOc1cc(N)ccc1C(=O)OCCN(CC)CC [propoxycaine]			plasma stability [3]: low plasma stability
CNc1nc2ccc(-c3nn(C(C)C)c4ncnc(N)c34)cc2s1 [Compound 11]	≤ 50 nM	≤ 100 nM	IC50 (PI3K delta): ≤ 500 nM; IC50 (PI3K beta): > 1000 nM
CO[C@H]1C[C@@H]2CC[C@@H](C)[C@@](O)(O2)C(=O)C(=O)N2CCCC[C@H]2C(=O)O[C@H]([C@H](C)C[C@@H]2CC[C@@H](OCCO)[C@H](OC)C2)CC(=O)[C@H](C)/C=C(\C)[C@@H](O)[C@@H](OC)C(=O)[C@H](C)C[C@H](C)/C=C/C=C/C=C/1C [RAD001]			lupus symptoms (B6.Sle1z.Sle3z model): ameliorate lupus symptoms
